Common to all, as to assay type: cell-based
Data set [1] relates to diffuse large B-cell lymphoma cell line (A3/Kawakami). Briefly: Western blot of cleaved PARP, γ-H2A.X and tubulin after drug treatment, diffuse large B-cell lymphoma cell line A3/Kawakami. The conditions noted are these: compared with etoposide and doxorubicin. Here is the method:
FIGS. 13A to 13B. […] FIG. 13A illustrates a Western blot gel as described in FIG. 11A. FIG. 13B illustrates graphs of the relative band intensity taken from the Western blot as described in FIG. 11B.
(§1) In FIGS. 12 and 13, similar experiments were performed to compare the cytotoxicity of aclarubicin to etoposide and doxorubicin in additional lymphoma cell lines. In FIG. 12, the compounds cytotoxicity and side effects were assessed in the Hodgkin's lymphoma cell line, L-428. In FIG. 13, the compounds cytotoxicity and side effects were assessed in the diffuse large B-cell lymphoma cell line, A3/KAW.

Data set [2] concerns Hodgkin's lymphoma cell line (L-428). Briefly: Western blot of cleaved PARP, γ-H2A.X and tubulin after drug treatment, Hodgkin's lymphoma cell line L-428. As to the method:
FIGS. 12A to 12B. […] FIG. 12A illustrates a Western blot gel as described in FIG. 11A. FIG. 12B illustrates graphs of the relative band intensity taken from the Western blot as described in FIG. 11B.
as §1

For a further data set, the system named is lymphoma cells. Briefly: Western blot of cleaved PARP and γ-H2A.X, summary over the three lymphoma cell lines (FIGS. 11-13). Here is the method:
(§2) FIG. 11A is a Western blot gel assessing expression of the markers listed on the y-axis. The specific cancer therapeutics and the amounts used are indicated by the numbers along the x-axis and the corresponding figure legend. In this Example, aclarubicin's cytotoxicity on lymphoma cells was assessed by determining the amount of cleaved PARP, which was assessed as band intensity (FIG. 11B) from the Western blot (FIG. 11A). In this Example, aclarubicin's corresponding DNA damage was assessed by measuring the amount of γ-H2A.X, which was assessed as band intensity (FIG. 11B) from the Western blot (FIG. 11A).
as §1

Data set [3] deals with Hodgkin's lymphoma cell line (L-1236). Briefly: Western blot of cleaved PARP, γ-H2A.X and tubulin after drug treatment, Hodgkin's lymphoma cell line L-1236. Here is the method:
FIGS. 11A to 11B. […] FIG. 11A illustrates a Western blot gel depicting marker expression following a 72 hour treatment with aclarubicin, etoposide, and doxorubicin. The markers are listed on the y-axis. The specific agents and amounts were added according to the labeling on the x-axis, which is fully described in the figure legend. FIG. 11B illustrates graphs of the relative band intensity taken from the Western blot and plotted according to drug concentration. The band intensity of PARP was used as an indicator of agent cytotoxicity. The band intensity of γ-H2A.X was used as an indicator of DNA damage (side effect). The band intensity of tubulin was used as a control.
as §2

[4] abbreviates: L-428, 72 hour treatment, compared with etoposide and doxorubicin.
Where [5] appears, read: L-1236, 72 hour treatment, 100 nM to 5.0 μM, compared with etoposide and doxorubicin.

SMILES strings stand for the structures. “Also recorded” adds a separate entry of the source.

Regarding `CC[C@@]1(O)C[C@H](O[C@H]2C[C@H](N(C)C)[C@H](O[C@H]3C[C@H](O)[C@H](O[C@H]4CCC(=O)[C@H](C)O4)[C@H](C)O3)[C@H](C)O2)c2c(cc3c(c2O)C(=O)c2c(O)cccc2C3=O)[C@H]1C(=O)OC` [aclarubicin], the “cytotoxicity and side effects (relative band intensities)” value in data set [1] (A3/KAW) was “best combination of anti-neoplastic activity while having fewer harmful side effects”; in data set [2] (L-428, compared with etoposide and doxorubicin), “best combination of anti-neoplastic activity while having fewer harmful side effects”. In addition, the “DNA damage (band intensity of γ-H2A.X, side effect)” value is listed as “minimizing DNA damage” in data set [1] (A3/Kawakami, 72 hour treatment); “minimizing DNA damage” in data set [2] (setting [4]); “minimizing DNA damage” in data set [3] (setting [5]). The “apoptosis / cytotoxicity (band intensity of PARP)” value is on record as “maximizes apoptosis” in data set [1] (A3/Kawakami, 72 hour treatment); “maximizes apoptosis” in data set [2] (setting [4]); “maximizes apoptosis” in data set [3] (setting [5]). For the same compound, the “DNA damage as measured by γ-H2A.X; side effect profile” value in the data set on lymphoma cells (FIGS. 11-13, compared with doxorubicin or etoposide) is recorded as “much less DNA damage; also recorded: much more favorable side effect profile than doxorubicin”. For the same compound, the “killing of lymphoma cells as measured by cleaved PARP; anti-neoplastic activity” value in the data set on lymphoma cells (FIGS. 11-13, three lymphoma cell lines) is on record as “efficiently kills lymphoma cells; also recorded: more anti-neoplastic activity than etoposide”. Besides, the “relative band intensity of PARP/tubulin, PARP/γ-H2A.X and γ-H2A.X/Tubulin” value in data set [3] (L-1236, compared with etoposide and doxorubicin) was “best combination of anti-neoplastic activity while having fewer harmful side effects”.

Source of the values: patent publication US11744843B2, “Identification and treatment of T-cell epitopes of short H2A oncohistones” (Fred Hutchinson Cancer Research Center, priority 2020, dated 2023).
